We go through two molecules from patent publication US10189853B2, “Conformationally restricted 4-substituted-2,6-dimethylfuro[2,3-d]pyrimidines as anti-tumor agents” (DUQUESNE UNIVERSITY OF THE HOLY SPIRIT, priority 2014, dated 2019).

One assay deals with VEGFR-2 (Homo sapiens (Human), UniProt P35968). The experiment in a line: VEGFR-2 kinase inhibition, phosphotyrosine ELISA cytoblot. In kind it is cell-based. As to conditions: for IC50: U251 cells, phosphotyrosine ELISA. Background: In an ELISA, binding on a coated surface is turned into a signal by an enzyme label.
The target in a further assay is PDGFR-β (Homo sapiens (Human), UniProt P09619). As to the kind of experiment: PDGFR-β kinase inhibition, phosphotyrosine ELISA cytoblot. In kind it is cell-based.
The subject of the next assay is M14. The experiment in a line: NCI 60 cell line panel. In kind it is cell-based. The conditions noted are these: Homo sapiens, Melanoma.
Another assay relates to 786-0. The experiment in a line: NCI 60 cell line panel. The assay is classed as cell-based. The conditions noted are these: Homo sapiens.
The test system of another assay is ACHN. The experiment in a line: NCI 60 cell line panel. In kind it is cell-based. The conditions noted are these: Homo sapiens, Renal Cancer.
The subject of a further assay is RXF 393. The experiment in a line: NCI 60 cell line panel. The assay is classed as cell-based. The conditions noted are these: Homo sapiens, Renal Cancer.
The test system of another assay is SN 12C. The experiment in a line: NCI 60 cell line panel. In kind it is cell-based. The conditions noted are these: Homo sapiens, SN12C, Renal Cancer.
Another assay concerns KM12. As to the kind of experiment: NCI 60 cell line panel. The assay is classed as cell-based. The conditions noted are these: Homo sapiens, Colon Cancer.
The next assay concerns MCF7. As to the kind of experiment: NCI 60 cell line panel. As to conditions: Homo sapiens, Breast Cancer. The assay is classed as cell-based.
A further assay relates to HS 578T. As to the kind of experiment: NCI 60 cell line panel. The assay is classed as cell-based. The conditions noted are these: Homo sapiens, Breast Cancer.
A further assay relates to SR. The experiment in a line: NCI 60 cell line panel. The assay is classed as cell-based. The conditions noted are these: Homo sapiens, Leukemia.
Assay [1] concerns M6/6 cells (SK-OV-3 expressing Pgp). As to the kind of experiment: Antiproliferative SRB assay. As to conditions: M6/6 (Pgp) vs SKOV3.
The subject of assay [2] is colchicine site on tubulin. The experiment in a line: Inhibition of [3H]colchicine binding.
Another assay has as its system A549/ATCC. The experiment in a line: NCI 60 cell line panel. The assay is classed as cell-based. As to conditions: Homo sapiens, NSCLC.
The subject of the next assay is NCI-H322M. The experiment in a line: NCI 60 cell line panel. In kind it is cell-based. As to conditions: Homo sapiens, NSCLC.
The next assay has as its system MALME-3M. The experiment in a line: NCI 60 cell line panel. In kind it is cell-based. As to conditions: Homo sapiens, Melanoma.
Another assay relates to SK-MEL-28. The experiment in a line: NCI 60 cell line panel. The assay is classed as cell-based. The conditions noted are these: Homo sapiens, Melanoma.
A further assay has as its system A498. The experiment in a line: NCI 60 cell line panel. In kind it is cell-based. The conditions noted are these: Homo sapiens, Renal Cancer.
For the next assay, the system named is RPMI-8226. The experiment in a line: NCI 60 cell line panel. The conditions noted are these: Homo sapiens, Leukemia. In kind it is cell-based.

Structures are written as SMILES. A value given as a limit tells only on which side of the number the result lay.

VEGFR-2, sequence (P35968 20-1356): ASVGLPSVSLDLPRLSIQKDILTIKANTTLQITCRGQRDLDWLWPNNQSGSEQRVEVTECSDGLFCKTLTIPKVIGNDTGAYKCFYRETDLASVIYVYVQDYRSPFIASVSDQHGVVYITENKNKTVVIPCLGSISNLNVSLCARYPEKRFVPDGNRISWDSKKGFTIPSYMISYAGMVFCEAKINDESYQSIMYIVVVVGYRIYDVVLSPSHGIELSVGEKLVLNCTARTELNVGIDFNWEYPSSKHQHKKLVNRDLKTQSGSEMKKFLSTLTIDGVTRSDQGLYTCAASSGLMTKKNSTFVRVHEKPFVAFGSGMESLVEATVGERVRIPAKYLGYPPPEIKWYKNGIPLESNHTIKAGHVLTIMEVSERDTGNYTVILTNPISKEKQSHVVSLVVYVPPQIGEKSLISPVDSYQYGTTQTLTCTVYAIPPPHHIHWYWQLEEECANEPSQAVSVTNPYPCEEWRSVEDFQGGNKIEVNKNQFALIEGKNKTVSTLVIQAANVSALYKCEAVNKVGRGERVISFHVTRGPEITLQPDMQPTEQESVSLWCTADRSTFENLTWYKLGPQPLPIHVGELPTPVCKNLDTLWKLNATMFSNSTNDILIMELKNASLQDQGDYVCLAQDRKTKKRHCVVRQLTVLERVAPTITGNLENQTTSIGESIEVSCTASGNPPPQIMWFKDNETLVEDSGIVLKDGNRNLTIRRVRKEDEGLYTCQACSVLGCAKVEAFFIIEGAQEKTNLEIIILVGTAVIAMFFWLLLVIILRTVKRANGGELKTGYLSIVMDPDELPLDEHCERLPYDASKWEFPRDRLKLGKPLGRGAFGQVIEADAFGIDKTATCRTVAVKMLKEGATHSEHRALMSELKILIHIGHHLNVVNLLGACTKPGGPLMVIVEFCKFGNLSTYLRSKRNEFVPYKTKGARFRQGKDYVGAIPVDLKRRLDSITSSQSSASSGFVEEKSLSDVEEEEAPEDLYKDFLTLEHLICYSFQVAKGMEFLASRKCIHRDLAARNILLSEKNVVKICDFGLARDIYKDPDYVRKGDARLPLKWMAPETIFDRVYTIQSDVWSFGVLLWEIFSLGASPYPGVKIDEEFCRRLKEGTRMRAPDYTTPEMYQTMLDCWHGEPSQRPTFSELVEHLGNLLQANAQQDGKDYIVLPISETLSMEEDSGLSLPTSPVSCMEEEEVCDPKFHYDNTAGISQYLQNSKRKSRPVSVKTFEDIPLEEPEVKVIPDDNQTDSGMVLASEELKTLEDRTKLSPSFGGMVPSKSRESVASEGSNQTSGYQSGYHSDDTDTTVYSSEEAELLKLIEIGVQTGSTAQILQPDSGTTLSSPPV
PDGFR-β, sequence (P09619 33-1106): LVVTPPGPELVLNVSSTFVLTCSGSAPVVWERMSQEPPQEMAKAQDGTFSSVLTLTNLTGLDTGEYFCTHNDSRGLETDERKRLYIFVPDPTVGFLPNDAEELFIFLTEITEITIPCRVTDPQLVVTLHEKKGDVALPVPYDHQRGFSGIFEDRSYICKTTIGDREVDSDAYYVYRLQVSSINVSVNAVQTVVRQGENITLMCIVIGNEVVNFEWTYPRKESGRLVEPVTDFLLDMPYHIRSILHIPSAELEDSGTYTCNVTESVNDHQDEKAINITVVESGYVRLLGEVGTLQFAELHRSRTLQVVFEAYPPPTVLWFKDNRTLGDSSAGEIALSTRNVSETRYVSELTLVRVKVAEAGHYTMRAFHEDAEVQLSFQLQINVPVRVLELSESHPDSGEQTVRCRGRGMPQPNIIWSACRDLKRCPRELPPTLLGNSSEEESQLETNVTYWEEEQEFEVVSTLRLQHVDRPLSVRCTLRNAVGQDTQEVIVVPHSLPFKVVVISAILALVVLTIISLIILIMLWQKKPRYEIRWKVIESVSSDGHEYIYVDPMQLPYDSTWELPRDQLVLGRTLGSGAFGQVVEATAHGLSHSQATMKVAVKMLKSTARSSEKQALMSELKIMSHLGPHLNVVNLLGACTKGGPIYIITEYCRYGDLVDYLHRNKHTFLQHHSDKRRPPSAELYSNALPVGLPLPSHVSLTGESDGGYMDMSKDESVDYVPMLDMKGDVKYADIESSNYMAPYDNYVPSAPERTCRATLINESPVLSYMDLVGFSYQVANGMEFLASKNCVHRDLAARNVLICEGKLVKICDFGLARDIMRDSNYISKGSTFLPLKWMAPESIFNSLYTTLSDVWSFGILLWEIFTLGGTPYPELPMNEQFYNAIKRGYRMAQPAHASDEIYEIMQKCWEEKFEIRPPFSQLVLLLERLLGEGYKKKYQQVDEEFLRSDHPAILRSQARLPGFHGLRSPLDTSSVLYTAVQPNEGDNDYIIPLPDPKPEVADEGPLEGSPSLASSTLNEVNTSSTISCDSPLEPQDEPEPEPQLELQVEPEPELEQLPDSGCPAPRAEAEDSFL
Method for PDGFR-β: (§1) Cells used were tumor cell lines naturally expressing high levels of EGFR (A431), VEGFR-2 (U251), and PDGFR-β (SH-SYSY). […] The reaction was stopped and cells were permeabilized by quickly removing the media from the cells and adding ice-cold Tris-buffered saline (TBS) containing 0.05% Triton X-100, protease inhibitor cocktail and tyrosine phosphatase inhibitor cocktail. The TBS solution was then removed and cells fixed to the plate for 30 min at 60° C. and further incubation in 70% ethanol for an additional 30 min. Cells were further exposed to block (TBS with 1% BSA) for 1 h, washed, and then a horseradish peroxidase (HRP)-conjugated phosphotyrosine (PY) antibody was added overnight.
Method for VEGFR-2: as §1

A word on the IC50: it is the concentration that inhibits the measured activity by half. Read a high IC50 as weaker potency. Usually GI50 stands for the concentration giving 50% growth inhibition. Higher therefore signals less potent growth inhibition. Regarding `Cc1nc(N(C)c2ccc3occc3c2)c2cc(C)oc2n1` [Compound 7, N-1-benzofuran-5-yl-N,2,6-trimethylfuro[2,3-d]pyrimidin-4-amine], the IC50 on VEGFR-2 stood at 5.8 ± 0.73 nM; on PDGFR-β (SH-SY5Y cells, phosphotyrosine ELISA), 25 ± 4.8 nM. Further, at VEGFR-2 (vs sunitinib), the “fold better than sunitinib, VEGFR-2” value worked out at 3 fold. Further, at PDGFR-β (vs sunitinib), the “fold better than sunitinib, PDGFR-β” value is given as “about 4 fold”. Moreover, the GI50 in the assay with M14 came to 47.3 nM; with 786-0, 1040 nM; in the assay on ACHN it was 265 nM; in the assay with RXF 393, 57.2 nM; in the assay with SN 12C, 611 nM; in the assay with KM12 it was 58.4 nM. Moreover, the GI50 was found to be 43.8 nM with MCF7, 51.7 nM in the assay with HS 578T and 62.4 nM with SR. Further, the “Rr value (relative resistance)” value in assay [1] was 1.2.
In turn, `COc1ccc2c(c1)CCCN2c1nc(C)nc2oc(C)cc12` [Compound 10, 4-(6-methoxy-3,4-dihydroquinolin-1(2H)-yl)-2,6-dimethylfuro[2,3-d]pyrimidine] registered an IC50 at VEGFR-2 of 33.2 ± 5 nM. The “Inhibition of colchicine binding % inhibition ± SD” value in [2] (1 μM) is 82 ± 3%; in assay [2] (5 μM), 96 ± 1%. For the same molecule, the GI50 with A549/ATCC, with NCI-H322M, with MALME-3M, with M14, in the assay with SK-MEL-28 and in the assay with 786-0 was less than 10 nM in each case. Also, the concentration for 50% growth inhibition (GI50) in the assay on A498, in the assay with ACHN, in the assay with RXF 393, in the assay with SN 12C, with KM12 and with MCF7 was less than 10 nM each time. In addition, the GI50 with HS 578T and in the assay on RPMI-8226 was less than 10 nM throughout.
